Paper PMC9050848, “Carbamoyl-N-aryl-imine-urea: a new framework to obtain a putative leishmanicidal drug-candidate” (RSC Advances, 2020)

Experiments:
[1] = tested on: L. braziliensis intracellular amastigotes; test: Leishmanicidal activity against intracellular amastigote forms of L. braziliensis in J774.A1 macrophages; assay type: cell-based; details: Leishmania braziliensis
Source text: Further, the leishmanicidal activity against intracellular amastigotes forms of L. braziliensis were also investigated (Table 2).
Promastigotes of L. amazonensis (MHOM/BR/77/LTB0016) were obtained from Dr Eduardo Caio Torres dos Santos at Oswaldo Cruz Institute – Fiocruz. Promastigotes of L. braziliensis (MHOM/BR/01/BA788) were obtained from Dr Valéria de Matos Borges at Gonçalo Moniz Research Center – Fiocruz. The parasites were maintained in vitro in Schneider's medium, supplemented with 10% FBS and 2% human urine at 27 °C in BOD incubator.
Initially, compounds 9a–e and 10a–e were evaluated at screening concentration of 30 μM against L. amazonensis, using DMSO 0.03% as vehicle control, since this was the DMSO concentration (vehicle) remaining in each well with the tested compounds. […] Vehicle control used was DMSO 0.1%, since this was the concentration of DMSO (vehicle) existing in each well with the tested substances in the highest concentration used.
To assess the activity of the test derivatives against the amastigote stage of L. amazonensis and L. braziliensis the model of infection in coverglass was realized.[31] The murine macrophages (J774.A1 cell line) were prepared in 24-well cell culture plate (flat bottom, clear, Corning) at 2 × 10^5 adherent cells per well, infected with 2 × 10^6 promastigotes in glass coverslips placed inside 1 mL medium culture. The cultures were cultured or not with the test derivatives or reference drugs, and kept for 24 h at 37 °C, 5% CO2. After 24 h of incubation, the coverslips were washed, stained with Giemsa–May–Grünwald, and intracellular amastigotes were counted in 100 macrophages, using an optical microscope, on the objective of 100×. Thus, during the counting of 100 macrophages, the amount of amastigotes present within these defence cells was also determined. Data obtained from in vitro experiments were expressed as the mean ± S.E.M. of duplicate cultures of representative assays. Statistical differences between the treated and the control groups were evaluated by ANOVA and Dunnett hoc tests. Differences with a p value < 0.05 or lower were considered significant.

[2] = Chemical stability in PBS pH 7.4; assay type: physicochemical; details: PBS pH 7.4, 37 °C, 0 and 240 minutes
Method: To investigate the potential plasma instability of the carbamoyl-N-arylimine-urea subunit, designed as a new peptide mimetic framework, compound 10e (LASSBio-1736) was selected to investigate its plasma stability,[21,22] previously to the evaluation of its in vivo leishmanicidal effect. Quantitation of 10e (LASSBio-1736), benzocaine standard (positive control; it means a substrate drug for plasma hydrolysis) and ketoconazole (internal standard) was determined by UPLC-MS/MS, after incubation of the compounds at 0, 30, 60, 120 and 240 min with rat plasma, and measuring the peak areas in three different experiments. […]
final R1 factor for I >2σ(I ) 0.0594 final wR 2 factor for all data 0.1689 largest diff. peak / hole (e/Å 3) 0.220 and -0.256
Chemical stability pH 7.4
In a 10 mL tube, 5μL (250 ng/mL) of LASSBio-1736 (10e) (stock concentration = 10000 ng/mL solubilized in DMSO) was added in 195μ L of PBS (pH=7.4), and the mixture was placed in a shaker at 37 °C under vigorous stirring for 0 and 240 minutes. […]
The samples were resuspended with 100 μL of a methanol:water mixture (7:3) […] and were placed in 2 mL vials, and analyzed by UPLC-MS. […]

L. amazonensis = test: Murine model of cutaneous leishmaniasis induced by L. amazonensis (efficacy); assay type: in vivo, BALB/c mice; details: 30 μmol per kg per day × 28 days
Method: So, BALB/c mice infected with L. amazonensis were treated during 28 days with compound 10e (30 μmol per kg per day, i.p.) or with the standards miltefosine (30 μmol per kg per day, p.o.) and meglumine antimoniate (30 μmol per kg per day, i.p.).
This study (protocol number 2013.02) was approved by the Ethics Committee for Animal Experimentation of the Federal University of Alagoas (Brazil). All animals received humane care in compliance with the ‘Principles of laboratory animal care’ formulated by the National Society for Medical Research and the ‘Guide for the care and use of laboratory animals’ prepared by the National Academy of Sciences (Washington, DC). Then, 1 × 10^5 stationary promastigotes (5 days of culture in Schneider's medium) of L. amazonensis were inoculated subcutaneously into the right ear dermis of 6 week-old female BALB/c mice weighing ca. 20 g. and later treated with 10e (i.p.), miltefosine (p.o.) or meglumine antimoniate (i.p.) at 30 μmol kg^−1 × 28 days. The vehicle to solubilize 10e (LASSBio-1736) and standard drugs was Tween 20 (50 μL) and sterile water for injection, which was also administrated by i.p. route in two controls groups (non-infected control and infected control). The lesion size was measured using a paquimeter.[32] The parasite loads of infected ears and draining lymph nodes were determined using a quantitative limiting-dilution assay.[33] Toxicity was also evaluated due to alterations on spleen weight and by biochemistry dosages in plasma, performed according to the manufacturer's instructions (Doles, BRA). Data obtained from experiments were expressed as the mean ± S.E.M. and statistical differences between the treated and the vehicle groups of experiments were evaluated by ANOVA and Dunnett hoc tests.

For `O=C(N/N=C/c1ccc(C(F)(F)F)cc1)NNC(=O)c1ccc(Cl)cc1Cl` [LASSBio-1736 (10e), 2,4-dichloro-phenylcarbamoyl-N-4-trifluoromethylphenylimine-urea], the IC50 ([1]; J774.A1, 24 h, read-out: IC50 (concentration required to give 50% death of parasites)) was 5.3 ± 2.6 µM, the Emax ([1]; J774.A1, L. braziliensis intracellular amastigotes, maximum toxicity vs 0.1% DMSO group, read-out: Maximum effect (% ± S.E.M.)) was 57.2 ± 5.2% and the “Stability to hydrolysis at PBS (pH 7.4)” value [2] was “stable to hydrolysis”. For the same molecule, the “Appearance of lesions on the first day after end of treatment (photographs)” value (L. amazonensis) was “complete healing of the nodules and ulcers”, the “Lesion sizes of infected ear” value (L. amazonensis; 10e and meglumine antimoniate i.p., miltefosine p.o.) was “reduced the lesion sizes of infected ear like miltefosine” and the “L. amazonensis titer in draining lymph node” value (L. amazonensis; limiting-dilution assay) was “not reduced the L. amazonensis titer in draining lymph node”. For the same molecule, the “Parasite load in infected ear” value (L. amazonensis; limiting-dilution assay) was “decreased parasite load in infected ear”.
